Here are results for eleven compounds from patent EP2738172A1 (Almirall, S.A., priority 2012, dated 2014).

As usually defined, the IC50 is the concentration at which inhibition is half-maximal.

Test [1] deals with Jurkat E6-1 cells. Kind of test: In vitro assay of cytokine release from T cells (IL-2 ELISA). Format: cell-based. As to conditions: Homo sapiens, Jurkat cells stimulated with PHA 20 µg/ml, 20 hours, secreted IL-2 by ELISA, read-out: Jurkat IL2 IC50. The procedure:
In vitro assay of cytokine release from T cells
Jurkat E6-1 cells were obtained from American Type Culture Collection (ATCC) and maintained in complete medium with 10% fetal bovine serum (FBS) at 37°C/5%CO2. Cells were plated in 100 µL of Dubelcco's Modified Eagle Medium (DMEM) with 1% FBS in a 96 well plate at a density of 1x10^6 cells/well and 50 µL of test compound was added. Cells were then stimulated by the addition of 50 µL of phytohemagglutinin (PHA) (final concentration 20 µg/ml) and incubated at 37°C/5%CO2 for 20 hours. On the following day, the supernatants were collected and assayed for IL-2 levels by ELISA according to the manufacturer's protocols. The IC50 value was calculated as the concentration at which 50% of secreted IL-2 in vehicle is inhibited.
In general terms: ELISA stands for enzyme-linked immunosorbent assay.

In test [2] the test system is Jurkat E6-1 cells. Kind of test: fluorescent calcium flux assay (FLIPR, thapsigargin store depletion). As to conditions: Homo sapiens, Thapsigargin 10µM, 2mM final calcium concentration, FLIPR Calcium 5 dye, read-out: Ca^2+ flux IC50. Format: cell-based. Here is the method:
fluorescent calcium flux assay
Jurkat E6-1 cells were obtained from ATCC (number TIB-152™) and maintained as ATCC recommend; in medium RPMI-1640 with 10% FBS at 37°C and 5% CO2.
Before the assay, Jurkat cells were grown at a density of 2 millions cells/ml in cell culture media (RPMI with 10% FBS) in a T-175 flask at 37°C and 5% CO2. The day of the assay, cells were harvested by centrifugation (5 minutes at 1500 rpm) and the pellet were suspended in Ca^2+ free assay buffer (HBSS w/o Ca^2+ and Mg^2+, 20mM Hepes and 1 mM MgCl2, pH 7.4) at a density of 5 million cells/ml.
Calcium depletion was initiated by the addition to the cell suspension of Thapsigarguin at a final assay concentration of 10µM. 20µl of the cellular suspension containing Thapsigargin (100.000 cells/well) were plated into 384 well plates (corning 3711) and incubated at RT for 15 minutes.
Test compounds were diluted in DMSO 100% to get a 10^-2M stock solution and serial dilutions 1/3 were performed in the same solvent. Then, 20µl of test compounds, diluted 75 times in Ca^2+ free assay buffer, were added to the cells and incubated at RT for 1h.
Once this incubation was completed, 5 µl of dye solution (FLIPR Calcium 5 Express Kit, Molecular Devices), prepared as Molecular Devices recommend, were added into the assay plates followed by an extra incubation period of 1 hour at room temperature. After the second incubation period, assay plates were placed into the FLIPR Tetra from Molecular Devices. Fluorescence was measured at a wavelength of 525nm after the dye excitation at 485nm. The initial baseline was measured during 20 seconds, and then 8µl of a 13mM Calcium solution in assay buffer were added (2mM final calcium concentration) except for basal wells, where assay buffer without calcium was added. At this time, changes in the cellular fluorescent were measured for an extra 80 seconds.
Peak and base line were taken for the calculation of the ratio (Peak/Base Line). Total, basal and compound well ratio values were used to calculate %Inhibition.

Take `Cn1nc(C(F)(F)F)cc1-c1ccc2[nH]c(-c3c(F)cccc3Cl)cc2n1` [Ex. 14, 2-(2-Chloro-6-fluorophenyl)-5-[1-methyl-3-(trifluoromethyl)-1H-pyrazol-5-yl]-1H-pyrrolo[3,2-b]pyridine]: the concentration for half-maximal inhibition (IC50) was found to be 36 nM in the test on Jurkat E6-1 cells [1] and 53 nM with Jurkat E6-1 cells [2].
As to `CNS(=O)(=O)c1ccc(-c2cnc3[nH]c(-c4c(F)cccc4Cl)cc3n2)c(C)c1` [Ex. 69, 4-(6-(2-Chloro-6-fluorophenyl)-5H-pyrrolo[2,3-b]pyrazin-2-yl)-N,3-dimethylbenzenesulfonamide], the half-inhibitory concentration (IC50) was 114 nM in the test with Jurkat E6-1 cells [1] and 580 nM in the test with Jurkat E6-1 cells [2].
On to `COc1cc(C)c(-c2cnc3[nH]c(-c4c(F)cccc4Cl)cc3n2)cn1` [Ex. 2, 6-(2-Chloro-6-fluorophenyl)-2-(6-methoxy-4-methylpyridin-3-yl)-5H-pyrrolo[2,3-b]pyrazine], for which the IC50 in the test on Jurkat E6-1 cells [1] was 100 nM; with Jurkat E6-1 cells [2], 357 nM.
The corresponding values for `Fc1cccc(Cl)c1-c1cc2cc(-c3cc4c(cc3Cl)OC(F)(F)O4)cnc2[nH]1` [Ex. 13, 5-(6-Chloro-2,2-difluoro-1,3-benzodioxol-5-yl)-2-(2-chloro-6-fluorophenyl)-1H-pyrrolo[2,3-b]pyridine] are 56 nM and 120 nM.
Consider `COc1cc(C)c(-c2cnc3[nH]c(-c4c(F)cccc4Cl)cc3c2)cn1` [Ex. 1, 2-(2-Chloro-6-fluorophenyl)-5-(6-methoxy-4-methylpyridin-3-yl)-1H-pyrrolo[2,3-b]pyridine], for which the results for the IC50 with Jurkat E6-1 cells [1] and in the test with Jurkat E6-1 cells [2] were 40 nM and 71 nM, respectively.
With `Cn1nc(C(F)(F)F)cc1-c1cc2cc(-c3c(F)cccc3Cl)[nH]c2cn1`, the 50% inhibitory concentration (IC50) in the test on Jurkat E6-1 cells [1] was 860 nM; in the test on Jurkat E6-1 cells [2], 640 nM.
Consider `FC(F)Oc1cc(C(F)(F)F)nn1-c1ccc2[nH]c(C3CCCCC3)cc2n1` [Ex. 30, 2-Cyclohexyl-5-[5-(difluoromethoxy)-3-(trifluoromethyl)-1H-pyrazol-1-yl]-1H-pyrrolo[3,2-b]pyridine], for which the IC50 with Jurkat E6-1 cells [1] turned out to be 110 nM; in the test on Jurkat E6-1 cells [2] it was 360 nM.
In the case of `Cc1nc2cc(Cl)c(-c3cnc4[nH]c(-c5c(F)cccc5Cl)cc4c3)cc2o1` [Ex. 73, 5-Chloro-6-(2-(2-chloro-6-fluorophenyl)-1H-pyrrolo[2,3-b]pyridin-5-yl)-2-methylbenzo[d]oxazole], the IC50 in the test on Jurkat E6-1 cells [1] was determined as 117 nM; with Jurkat E6-1 cells [2] it was 88 nM.
As to `Cn1nc(C(F)(F)F)cc1-c1ccc2[nH]c(C3CCCCC3)cc2n1` [Ex. 16, 2-Cyclohexyl-5-[1-methyl-3-(trifluoromethyl)-1H-pyrazol-5-yl]-1H-pyrrolo[3,2-b]pyridine], the results for the half-maximal inhibitory concentration (IC50) in the test with Jurkat E6-1 cells [1] and in the test on Jurkat E6-1 cells [2] were 130 nM and 390 nM, respectively.
Turning to `Cc1cc(S(=O)(=O)N(C)C)ccc1-c1cnc2[nH]c(-c3c(F)cccc3Cl)cc2n1` [Ex. 8, 4-[6-(2-chloro-6-fluorophenyl)-5H-pyrrolo[2,3-b]pyrazin-2-yl]-N,N,3-trimethylbenzenesulfonamide], the half-maximal inhibitory concentration (IC50) in the test on Jurkat E6-1 cells [1] turned out to be 41 nM; in the test with Jurkat E6-1 cells [2], 800 nM.
The corresponding values for `COc1cc(C)c(-c2cnc3[nH]c(-c4c(F)cc(OCCCO)cc4F)cc3c2)cn1` [Ex. 9, 3-{3,5-difluoro-4-[5-(6-methoxy-4-methylpyridin-3-yl)-1H-pyrrolo[2,3-b]pyridin-2-yl]phenoxy}propan-1-ol] are 210 nM and 370 nM.
